Results as given in patent US11198713B2, “Agents modulating beta-catenin functions and methods thereof” (FOG PHARMACEUTICALS, INC., priority 2017, dated 2021).
pEC50: −log10 of the molar value.

Target: T1, full-length beta-catenin (Axin site) (Homo sapiens, UniProt P35222)
T1 construct: 15 nM full-length beta-catenin, 20 nM FITC labeled peptide in buffer
T1 sequence (P35222 1-781): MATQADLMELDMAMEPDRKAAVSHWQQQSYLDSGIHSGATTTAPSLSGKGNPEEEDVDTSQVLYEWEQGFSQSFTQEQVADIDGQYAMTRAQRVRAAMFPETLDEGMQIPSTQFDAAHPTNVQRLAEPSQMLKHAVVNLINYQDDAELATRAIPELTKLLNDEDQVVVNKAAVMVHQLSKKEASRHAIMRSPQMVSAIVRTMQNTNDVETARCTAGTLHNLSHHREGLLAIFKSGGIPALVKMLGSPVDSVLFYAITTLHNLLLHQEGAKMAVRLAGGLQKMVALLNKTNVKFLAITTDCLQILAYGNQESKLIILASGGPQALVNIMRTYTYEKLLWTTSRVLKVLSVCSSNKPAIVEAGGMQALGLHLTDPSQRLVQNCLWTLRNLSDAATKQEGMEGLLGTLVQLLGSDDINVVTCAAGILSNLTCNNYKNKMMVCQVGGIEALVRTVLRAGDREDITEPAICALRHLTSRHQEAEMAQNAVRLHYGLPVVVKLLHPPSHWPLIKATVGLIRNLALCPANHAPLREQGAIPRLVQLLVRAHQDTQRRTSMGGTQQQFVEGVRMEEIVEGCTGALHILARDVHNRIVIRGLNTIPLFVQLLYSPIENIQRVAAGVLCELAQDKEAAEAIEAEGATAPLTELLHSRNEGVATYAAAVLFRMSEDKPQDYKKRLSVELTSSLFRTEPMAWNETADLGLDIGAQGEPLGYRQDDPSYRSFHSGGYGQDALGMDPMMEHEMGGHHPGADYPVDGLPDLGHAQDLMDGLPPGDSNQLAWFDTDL
Experiment: Competition fluorescence polarization assay (Axin site probe)
Type: binding
Conditions: competition fluorescence polarization, Table 2; read-out: in vitro FP EC50
Method in brief: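 Competition FP: 15 nM full-length β-catenin pre-incubated 5 min with 20 nM FITC-labelled stapled Axin-site peptide, then titrated peptide added (3-fold series from 5 μM) for 15 min in the dark. Buffer 50 mM Tris pH 8.0, 250 mM NaCl, 2% glycerol, 0.5 mM EDTA; duplicate reads.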

Compound | pEC50
CC[C@H](C)[C@@H]1NC(=O)[C@@](C)(NC(=O)[C@H](CCC(N)=O)NC(=O)[C@@H]2CCCN2C(C)=O)CCCC=CCN2CC(C(=O)N[C@@H](Cc3c[nH]cn3)C(=O)N[C@H](C(=O)N[C@@H](CCCNC(=N)N)C(=O)N[C@@H](CCCNC(=N)N)C(=O)N[C@H](C(=O)N[C@@H](Cc3c[nH]c4ccccc34)C(=O)N[C@@H](CCCNC(=N)N)C(N)=O)C(C)C)C(C)C)(C2)NC(=O)[C@H](CC(=O)O)NC(=O)[C@H](CC(C)C)NC1=O (single isomer, unassigned) [FP0734a, Ac-P-Q-S5-I-L-D-MA-H-V-R-R-V-W-R-NH2] | < 5.30
CC[C@H](C)[C@@H]1NC(=O)[C@@](C)(NC(=O)[C@H](CCC(N)=O)NC(=O)[C@@H]2CCCN2C(C)=O)CCCC=CCOC(=O)N2CC(C(=O)N[C@@H](Cc3c[nH]cn3)C(=O)N[C@H](C(=O)N[C@@H](CCCNC(=N)N)C(=O)N[C@@H](CCCNC(=N)N)C(=O)N[C@H](C(=O)N[C@@H](Cc3c[nH]c4ccccc34)C(=O)N[C@@H](CCCNC(=N)N)C(N)=O)C(C)C)C(C)C)(C2)NC(=O)[C@H](CC(=O)O)NC(=O)[C@H](CC(C)C)NC1=O (single isomer, unassigned) [FP0734c, Ac-P-Q-S5-I-L-D-MA-H-V-R-R-V-W-R-NH2] | < 5.30
CC[C@H](C)[C@@H]1NC(=O)[C@@](C)(NC(=O)[C@H](CCC(N)=O)NC(=O)[C@@H]2CCCN2C(C)=O)CCCCC=CCN2CC(C(=O)N[C@@H](Cc3c[nH]cn3)C(=O)N[C@H](C(=O)N[C@@H](CCCNC(=N)N)C(=O)N[C@@H](CCCNC(=N)N)C(=O)N[C@H](C(=O)N[C@@H](Cc3c[nH]c4ccccc34)C(=O)N[C@@H](CCCNC(=N)N)C(N)=O)C(C)C)C(C)C)(C2)NC(=O)[C@H](CC(=O)O)NC(=O)[C@H](CC(C)C)NC1=O (single isomer, unassigned) [FP0736a, Ac-P-Q-S6-I-L-D-MA-H-V-R-R-V-W-R-NH2] | 6.30 to 7.00
CC[C@H](C)[C@@H]1NC(=O)[C@@](C)(NC(=O)[C@H](CCC(N)=O)NC(=O)[C@@H]2CCCN2C(C)=O)CCCCC=CCOC(=O)N2CC(C(=O)N[C@@H](Cc3c[nH]cn3)C(=O)N[C@H](C(=O)N[C@@H](CCCNC(=N)N)C(=O)N[C@@H](CCCNC(=N)N)C(=O)N[C@H](C(=O)N[C@@H](Cc3c[nH]c4ccccc34)C(=O)N[C@@H](CCCNC(=N)N)C(N)=O)C(C)C)C(C)C)(C2)NC(=O)[C@H](CC(=O)O)NC(=O)[C@H](CC(C)C)NC1=O (single isomer, unassigned) [FP0736c, Ac-P-Q-S6-I-L-D-MA-H-V-R-R-V-W-R-NH2] | 5.30 to 6.30
CC[C@H](C)[C@@H]1NC(=O)[C@@](C)(NC(=O)[C@H](CCC(N)=O)NC(=O)[C@@H]2CCCN2C(C)=O)CCCCCC=CCOC(=O)N2CC(C(=O)N[C@@H](Cc3c[nH]cn3)C(=O)N[C@H](C(=O)N[C@@H](CCCNC(=N)N)C(=O)N[C@@H](CCCNC(=N)N)C(=O)N[C@H](C(=O)N[C@@H](Cc3c[nH]c4ccccc34)C(=O)N[C@@H](CCCNC(=N)N)C(N)=O)C(C)C)C(C)C)(C2)NC(=O)[C@H](CC(=O)O)NC(=O)[C@H](CC(C)C)NC1=O (single isomer, unassigned) [FP0738c, Ac-P-Q-S7-I-L-D-MA-H-V-R-R-V-W-R-NH2] | 5.30 to 6.30
CC[C@H](C)[C@@H]1NC(=O)[C@@]2(NC(=O)[C@H](CCC(N)=O)NC(=O)[C@@H]3CCCN3C(C)=O)CCN(CC=CCCC[C@](C)(C(=O)N[C@@H](Cc3c[nH]cn3)C(=O)N[C@H](C(=O)N[C@@H](CCCNC(=N)N)C(=O)N[C@@H](CCCNC(=N)N)C(=O)N[C@H](C(=O)N[C@@H](Cc3c[nH]c4ccccc34)C(=O)N[C@@H](CCCNC(=N)N)C(N)=O)C(C)C)C(C)C)NC(=O)[C@H](CC(=O)O)NC(=O)[C@H](CC(C)C)NC1=O)C2 (single isomer, unassigned) [FP0743a, Ac-P-Q-MC-I-L-D-R5-H-V-R-R-V-W-R-NH2] | < 5.30
CC[C@H](C)[C@@H]1NC(=O)[C@@]2(NC(=O)[C@H](CCC(N)=O)NC(=O)[C@@H]3CCCN3C(C)=O)CCN(C2)C(=O)OCC=CCCCC[C@](C)(C(=O)N[C@@H](Cc2c[nH]cn2)C(=O)N[C@H](C(=O)N[C@@H](CCCNC(=N)N)C(=O)N[C@@H](CCCNC(=N)N)C(=O)N[C@H](C(=O)N[C@@H](Cc2c[nH]c3ccccc23)C(=O)N[C@@H](CCCNC(=N)N)C(N)=O)C(C)C)C(C)C)NC(=O)[C@H](CC(=O)O)NC(=O)[C@H](CC(C)C)NC1=O (single isomer, unassigned) [FP0745c, Ac-P-Q-MC-I-L-D-R6-H-V-R-R-V-W-R-NH2] | 6.30 to 7.00
CC[C@H](C)[C@@H]1NC(=O)[C@]2(NC(=O)[C@H](CCC(N)=O)NC(=O)[C@@H]3CCCN3C(C)=O)CCN(C2)C(=O)OCC=CCCCC[C@@](C)(C(=O)N[C@@H](Cc2c[nH]cn2)C(=O)N[C@H](C(=O)N[C@@H](CCCNC(=N)N)C(=O)N[C@@H](CCCNC(=N)N)C(=O)N[C@H](C(=O)N[C@@H](Cc2c[nH]c3ccccc23)C(=O)N[C@@H](CCCNC(=N)N)C(N)=O)C(C)C)C(C)C)NC(=O)[C@H](CC(=O)O)NC(=O)[C@H](CC(C)C)NC1=O (single isomer, unassigned) [FP0752c, Ac-P-Q-MB-I-L-D-S6-H-V-R-R-V-W-R-NH2] | 5.30 to 6.30

The remaining lines, values ahead:

pEC50 | Compound
5.30 to 6.30 | CC[C@H](C)[C@@H]1NC(=O)[C@](C)(NC(=O)[C@H](CCC(N)=O)NC(=O)[C@@H]2CCCN2C(C)=O)CCCCC=CCN2CC(C(=O)N[C@@H](Cc3c[nH]cn3)C(=O)N[C@H](C(=O)N[C@@H](CCCNC(=N)N)C(=O)N[C@@H](CCCNC(=N)N)C(=O)N[C@H](C(=O)N[C@@H](Cc3c[nH]c4ccccc34)C(=O)N[C@@H](CCCNC(=N)N)C(N)=O)C(C)C)C(C)C)(C2)NC(=O)[C@H](CC(=O)O)NC(=O)[C@H](CC(C)C)NC1=O (single isomer, unassigned) [FP0735a, Ac-P-Q-R6-I-L-D-MA-H-V-R-R-V-W-R-NH2]
5.30 to 6.30 | CC[C@H](C)[C@@H]1NC(=O)[C@](C)(NC(=O)[C@H](CCC(N)=O)NC(=O)[C@@H]2CCCN2C(C)=O)CCCCC=CCOC(=O)N2CC(C(=O)N[C@@H](Cc3c[nH]cn3)C(=O)N[C@H](C(=O)N[C@@H](CCCNC(=N)N)C(=O)N[C@@H](CCCNC(=N)N)C(=O)N[C@H](C(=O)N[C@@H](Cc3c[nH]c4ccccc34)C(=O)N[C@@H](CCCNC(=N)N)C(N)=O)C(C)C)C(C)C)(C2)NC(=O)[C@H](CC(=O)O)NC(=O)[C@H](CC(C)C)NC1=O (single isomer, unassigned) [FP0735c, Ac-P-Q-R6-I-L-D-MA-H-V-R-R-V-W-R-NH2]
5.30 to 6.30 | CC[C@H](C)[C@@H]1NC(=O)[C@@]2(NC(=O)[C@H](CCC(N)=O)NC(=O)[C@@H]3CCCN3C(C)=O)CCN(C2)C(=O)OCC=CCCC[C@](C)(C(=O)N[C@@H](Cc2c[nH]cn2)C(=O)N[C@H](C(=O)N[C@@H](CCCNC(=N)N)C(=O)N[C@@H](CCCNC(=N)N)C(=O)N[C@H](C(=O)N[C@@H](Cc2c[nH]c3ccccc23)C(=O)N[C@@H](CCCNC(=N)N)C(N)=O)C(C)C)C(C)C)NC(=O)[C@H](CC(=O)O)NC(=O)[C@H](CC(C)C)NC1=O (single isomer, unassigned) [FP0743c, Ac-P-Q-MC-I-L-D-R5-H-V-R-R-V-W-R-NH2]
< 5.30 | CC[C@H](C)[C@@H]1NC(=O)[C@]2(NC(=O)[C@H](CCC(N)=O)NC(=O)[C@@H]3CCCN3C(C)=O)CCN(CC=CCCC[C@@](C)(C(=O)N[C@@H](Cc3c[nH]cn3)C(=O)N[C@H](C(=O)N[C@@H](CCCNC(=N)N)C(=O)N[C@@H](CCCNC(=N)N)C(=O)N[C@H](C(=O)N[C@@H](Cc3c[nH]c4ccccc34)C(=O)N[C@@H](CCCNC(=N)N)C(N)=O)C(C)C)C(C)C)NC(=O)[C@H](CC(=O)O)NC(=O)[C@H](CC(C)C)NC1=O)C2 (single isomer, unassigned) [FP0751a, Ac-P-Q-MB-I-L-D-S5-H-V-R-R-V-W-R-NH2]
5.30 to 6.30 | CC[C@H](C)[C@@H]1NC(=O)[C@]2(NC(=O)[C@H](CCC(N)=O)NC(=O)[C@@H]3CCCN3C(C)=O)CCN(C2)C(=O)OCC=CCCC[C@@](C)(C(=O)N[C@@H](Cc2c[nH]cn2)C(=O)N[C@H](C(=O)N[C@@H](CCCNC(=N)N)C(=O)N[C@@H](CCCNC(=N)N)C(=O)N[C@H](C(=O)N[C@@H](Cc2c[nH]c3ccccc23)C(=O)N[C@@H](CCCNC(=N)N)C(N)=O)C(C)C)C(C)C)NC(=O)[C@H](CC(=O)O)NC(=O)[C@H](CC(C)C)NC1=O (single isomer, unassigned) [FP0751c, Ac-P-Q-MB-I-L-D-S5-H-V-R-R-V-W-R-NH2]
< 5.30 | CC[C@H](C)[C@@H]1NC(=O)[C@]2(NC(=O)[C@H](CCC(N)=O)NC(=O)[C@@H]3CCCN3C(C)=O)CCN(CC=CCCCCC[C@@](C)(C(=O)N[C@@H](Cc3c[nH]cn3)C(=O)N[C@H](C(=O)N[C@@H](CCCNC(=N)N)C(=O)N[C@@H](CCCNC(=N)N)C(=O)N[C@H](C(=O)N[C@@H](Cc3c[nH]c4ccccc34)C(=O)N[C@@H](CCCNC(=N)N)C(N)=O)C(C)C)C(C)C)NC(=O)[C@H](CC(=O)O)NC(=O)[C@H](CC(C)C)NC1=O)C2 (single isomer, unassigned) [FP0753a, Ac-P-Q-MB-I-L-D-S7-H-V-R-R-V-W-R-NH2]
